Data taken from patent US11975017B2, “Compositions comprising an RNA polymerase inhibitor and cyclodextrin for treating viral infections” (priority 2017, dated 2024).
≈ marks a conversion by molar mass, not a printed value.

What was measured:
[1] = format: physicochemical; conditions: between pH 1 and 10; FIG. 2
Protocol: The stability of Compound 1 was determined by monitoring the concentration of Compound 1 in solution by liquid chromatography at various storage conditions. […] The solubility of Compound 1 between pH 1 and 10 was determined by quantitatively measuring the concentration of Compound 1 in solution at various pH conditions by liquid chromatography.

physchem = conditions: water

## CCC(CC)COC(=O)[C@H](C)N[P@](=O)(OC[C@H]1O[C@@](C#N)(c2ccc3c(N)ncnn23)[C@H](O)[C@@H]1O)Oc1ccccc1 [Compound 1, (S)-2-ethylbutyl 2-(((S)-(((2R,3S,4R,5R)-5-(4-aminopyrrolo[2,1-f][1,2,4]triazin-7-yl)-5-cyano-3,4-dihydroxytetrahydrofuran-2-yl)methoxy)(phenoxy)phosphoryl)amino)propanoate]
[1]
  solubility as a function of pH: increases at or below pH 4
physchem
  solubility: ~30 µg/mL (≈ 49.8 µM)
